Laboratory results: article PMC7044277 (Nature Communications, 2020)
Several values for one entry are separate records, joined by “and”; a condition that tells them apart may be missing. Equal entries are not always repeated.

How the values were obtained:
Type in all cases: cell-based
DRD2 S1935.42G = target: T1, DRD2 S1935.42G (Homo sapiens, UniProt P14416, S193G); test: Gαi/o-mediated cAMP inhibition (GloSensor), mutant; settings: DRD2 Ser5.42Gly; G-protein assay
T1 construct: expressed in transfected cells; host or cells: HEK293T (ATCC CRL-11268)

DRD2 S1975.46G = target: T2, DRD2 S1975.46G (Homo sapiens, UniProt P14416, S197G); test: Gαi/o-mediated cAMP inhibition (GloSensor), mutant; settings: DRD2 Ser197^5.46Gly; G-protein assay
T2 construct: expressed in transfected cells; host or cells: HEK293T (ATCC CRL-11268)

DRD1 = DRD1 (Homo sapiens, UniProt P21728); test: β-arrestin2 recruitment (Tango); settings: agonist mode
5HT1D = 5HT1D (Homo sapiens, UniProt P28221); test: β-arrestin2 recruitment (Tango); settings: agonist activity only at high concentrations
5HT2C = target: T3, 5HT2C (Homo sapiens, UniProt P28335); test: β-arrestin2 recruitment (Tango); settings: Fig_S10m; for β-arrestin2 recruitment response in presence of serotonin (replicate values): +10μM serotonin; for β-arrestin2 recruitment response (dose-response source data, replicate values): drug alone
T3 sequence (P28335 33-458): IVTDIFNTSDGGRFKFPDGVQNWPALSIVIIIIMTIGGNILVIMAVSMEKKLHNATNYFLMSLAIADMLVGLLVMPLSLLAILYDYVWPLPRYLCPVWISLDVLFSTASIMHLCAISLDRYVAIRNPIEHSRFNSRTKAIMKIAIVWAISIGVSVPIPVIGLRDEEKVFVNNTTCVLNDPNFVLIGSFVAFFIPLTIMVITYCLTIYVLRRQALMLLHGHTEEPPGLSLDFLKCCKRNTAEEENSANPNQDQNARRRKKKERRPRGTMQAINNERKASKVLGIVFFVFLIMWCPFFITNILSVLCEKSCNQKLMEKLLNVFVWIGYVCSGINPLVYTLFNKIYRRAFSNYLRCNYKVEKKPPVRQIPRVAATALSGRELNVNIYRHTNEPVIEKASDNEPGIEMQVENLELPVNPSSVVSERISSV

Chain of DRD1 (P21728 whole entry): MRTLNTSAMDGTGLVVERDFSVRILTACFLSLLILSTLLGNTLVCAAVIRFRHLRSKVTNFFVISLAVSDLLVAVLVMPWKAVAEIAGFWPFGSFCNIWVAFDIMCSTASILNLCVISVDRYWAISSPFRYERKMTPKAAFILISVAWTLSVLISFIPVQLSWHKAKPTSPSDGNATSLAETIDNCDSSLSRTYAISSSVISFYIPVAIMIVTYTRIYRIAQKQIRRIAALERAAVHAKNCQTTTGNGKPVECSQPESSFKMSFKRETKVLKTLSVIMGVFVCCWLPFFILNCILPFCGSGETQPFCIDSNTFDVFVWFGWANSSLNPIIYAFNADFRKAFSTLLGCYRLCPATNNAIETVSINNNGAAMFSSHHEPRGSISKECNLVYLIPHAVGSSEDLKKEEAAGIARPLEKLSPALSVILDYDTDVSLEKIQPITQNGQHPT
T2 sequence (P14416 whole entry S197G): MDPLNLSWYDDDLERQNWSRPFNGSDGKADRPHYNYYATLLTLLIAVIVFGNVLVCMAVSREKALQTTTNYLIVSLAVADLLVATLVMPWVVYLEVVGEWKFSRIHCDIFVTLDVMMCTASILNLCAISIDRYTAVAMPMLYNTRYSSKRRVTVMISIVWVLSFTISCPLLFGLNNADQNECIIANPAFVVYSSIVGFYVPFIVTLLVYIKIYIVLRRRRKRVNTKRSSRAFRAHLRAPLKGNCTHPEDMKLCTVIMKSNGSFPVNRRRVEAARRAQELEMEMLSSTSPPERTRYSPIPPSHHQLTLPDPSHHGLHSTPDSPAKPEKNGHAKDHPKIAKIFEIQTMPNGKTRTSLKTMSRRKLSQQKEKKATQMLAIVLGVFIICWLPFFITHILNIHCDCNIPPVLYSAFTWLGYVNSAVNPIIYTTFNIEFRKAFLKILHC
T1 sequence (P14416 whole entry S193G): as the sequence (P14416 whole entry S197G) above, with S193G, G197S counted along it
Chain of 5HT1D (P28221 whole entry): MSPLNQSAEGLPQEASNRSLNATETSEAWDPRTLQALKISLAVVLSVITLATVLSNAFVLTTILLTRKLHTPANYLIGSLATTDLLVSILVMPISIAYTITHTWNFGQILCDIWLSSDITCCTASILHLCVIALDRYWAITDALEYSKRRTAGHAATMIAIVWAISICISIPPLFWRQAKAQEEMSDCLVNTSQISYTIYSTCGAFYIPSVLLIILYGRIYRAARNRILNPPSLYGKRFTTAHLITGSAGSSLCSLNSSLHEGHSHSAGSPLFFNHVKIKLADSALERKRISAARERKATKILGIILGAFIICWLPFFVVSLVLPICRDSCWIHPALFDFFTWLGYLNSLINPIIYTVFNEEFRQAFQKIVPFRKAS

CCOc1cccc2cc([C@H](C)NCC3(O)CCCCC3)oc12 [O4SE6]
agonism after serine to glycine substitution (DRD2 S1935.42G): impaired | agonism after serine to glycine substitution (DRD2 S1975.46G): impaired | Fig_S10d concentration-response source data, compound alone (replicates) (DRD1; Log[Drug] -6.52): 1.081 | Fig_S10d concentration-response source data, compound alone (replicates) (DRD1; Log[Drug] -7): 1.077 and 2.449 and 0.7206 and 0.01093 and 0.2616 and 0.5709 and 0.4663 and -0.4785 and 0.5459 | Fig_S10d concentration-response source data, compound alone (replicates) (DRD1; Log[Drug] -7.52): 0.3818 and 0.7249 and 2.612 and 1.107 and 0.1296 and 1.638 and 0.2406 and 0.3904 and 0.4963 | Fig_S10d concentration-response source data, compound alone (replicates) (DRD1; Log[Drug] -8): 4.337 and 0.3775 and 1.059 and 0.9723 and 0.606 and 0.3811 and 0.01404 and 0.5796 and 0.0103 | Fig_S10d concentration-response source data, compound alone (replicates) (DRD1; Log[Drug] -8.52): 1.411 and 0.7206 and 3.809 and 2.0766 and 0.164 and 0.2319 and -0.01873 and 0.09082 and 0.3165 | Fig_S10d concentration-response source data, compound alone (replicates) (DRD1; Log[Drug] -9): -0.3131 and 1.5871 and 3.29 and -0.05311 and -0.07654 and 0.3577 and 0.09363 and 0.0515 and 0.4204 | Fig_S10d concentration-response source data, compound alone (replicates) (DRD1; Log[Drug] -9.52): 3.9849 and 1.227 and 1.561 and 0.082 and -0.1093 and 0.5131 and -0.06273 and 0.7238 and 1.497 | Fig_S10d concentration-response source data, compound alone (replicates) (DRD1; Log[Drug] -10): 3.981 and 1.729 and 5.684 and -0.04842 and 0.2671 and 0.3249 and 0.426 and 0.4251 and 0.5346 | Fig_S10d concentration-response source data, compound alone (replicates) (DRD1; Log[Drug] -10.52): 0.712 and 1.746 and 4.122 and 0.3608 and 0.264 and 0.2335 and 1.101 and -0.02996 and 0.2809 | Fig_S10d concentration-response source data, compound alone (replicates) (DRD1; Log[Drug] -11): 2.269 and 1.742 and 3.972 and 0.1742 and 0.3296 and 0.01406 and 0.6835 and 1.257 and -0.2856 | Fig_S10d concentration-response source data, compound alone (replicates) (DRD1; Log[Drug] -11.52): 0.3861 and 1.068 and 2.775 and -0.2327 and -0.01484 and 0.1414 and 0.7734 and -0.7734 and -0.2032 | Fig_S10d concentration-response source data, compound alone (replicates) (DRD1; Log[Drug] -12): 1.754 and 0.5705 and -0.2917 and 0.1156 and 0.2702 and 0.1429 and -0.6489 and -0.1919 and -0.08146 | concentration at which the receptor is activated (5HT1D): over 1 μM | β-arrestin2 recruitment response in presence of serotonin (replicate values) (5HT2C; Log[Drug] -5): 45.7461 and 51.1482 and 53.4841 and 61.6893 and 54.4017 and 57.753 and 67.2866 and 83.7427 and 85.1445 | β-arrestin2 recruitment response (dose-response source data, replicate values) (5HT2C; Log[Drug] -5): -3.262 and -0.5555 and 0.5642 and 1.204 and -0.4664 and 1.061 and -2.805 and 1.039 and 3.566 | β-arrestin2 recruitment response in presence of serotonin (replicate values) (5HT2C; Log[Drug] -5.52): 76.8132 and 54.1781 and 71.9421 and 67.2323 and 56.1903 and 49.3738 and 64.9568 and 69.9468 and 71.0617 | β-arrestin2 recruitment response (dose-response source data, replicate values) (5HT2C; Log[Drug] -5.52): -3.477 and -1.313 and -1.505 and -0.3021 and 0.7731 and -0.1754 and 1.049 and -1.9165 and -0.666 | β-arrestin2 recruitment response in presence of serotonin (replicate values) (5HT2C; Log[Drug] -6): 57.6708 and 60.6404 and 63.9932 and 75.4508 and 75.7722 and 57.215 and 86.3739 and 65.9717 and 77.801 | β-arrestin2 recruitment response (dose-response source data, replicate values) (5HT2C; Log[Drug] -6): 0.1892 and -1.167 and -2.9638 and 0.5481 and 0.639 and 4.5826 and 1.774 and -1.813 and -1.0517 | β-arrestin2 recruitment response in presence of serotonin (replicate values) (5HT2C; Log[Drug] -6.52): 49.4392 and 65.2785 and 58.4136 and 69.39 and 55.9424 and 71.2915 and 76.7849 and 85.9817 and 94.9705 | β-arrestin2 recruitment response (dose-response source data, replicate values) (5HT2C; Log[Drug] -6.52): 3.199 and -0.222 and 0.3914 and 1.323 and 0.05601 and 0.9925 and -1.994 and 1.303 and -2.122 | β-arrestin2 recruitment response in presence of serotonin (replicate values) (5HT2C; Log[Drug] -7): 67.4184 and 56.2577 and 61.082 and 74.1195 and 66.0313 and 86.1338 and 77.8195 and 67.5788 and 79.0331 | β-arrestin2 recruitment response (dose-response source data, replicate values) (5HT2C; Log[Drug] -7): -0.4648 and -1.599 and 4.168 and 0.2351 and 1.745 and 2.334 and 14.5501 and 3.184 and 0.1487 | β-arrestin2 recruitment response in presence of serotonin (replicate values) (5HT2C; Log[Drug] -7.52): 57.9508 and 62.7389 and 68.9932 and 62.9857 and 78.9582 and 61.3863 and 70.1719 and 83.8296 and 68.1225 | β-arrestin2 recruitment response (dose-response source data, replicate values) (5HT2C; Log[Drug] -7.52): -1.179 and -0.8967 and -0.04778 and 2.819 and 2.117 and -0.4591 and 1.974 and -0.9095 and 6.65 | β-arrestin2 recruitment response in presence of serotonin (replicate values) (5HT2C; Log[Drug] -8): 70.2712 and 69.291 and 73.2872 and 71.712 and 66.0148 and 66.2452 and 79.2674 and 70.1943 and 78.2394 | β-arrestin2 recruitment response (dose-response source data, replicate values) (5HT2C; Log[Drug] -8): -1.7418 and -1.636 and 0.2046 and 0.909 and -0.4958 and 0.1891 and 1.914 and -0.383 and 4.332 | β-arrestin2 recruitment response in presence of serotonin (replicate values) (5HT2C; Log[Drug] -8.52): 72.9942 and 69.4566 and 60.9768 and 61.1778 and 82.5318 and 58.5381 and 71.529 and 76.0793 and 77.135 | β-arrestin2 recruitment response (dose-response source data, replicate values) (5HT2C; Log[Drug] -8.52): -0.5405 and -0.709 and 2.709 and 0.684 and 1.936 and 3.627 and 2.573 and 6.06 and -0.7082 | β-arrestin2 recruitment response in presence of serotonin (replicate values) (5HT2C; Log[Drug] -9): 65.7886 and 59.3306 and 51.1636 and 117.587 and 77.0604 and 77.3487 and 69.8244 and 87.7165 and 82.2092 | β-arrestin2 recruitment response (dose-response source data, replicate values) (5HT2C; Log[Drug] -9): -2.125 and 1.403 and -1.228 and 0.9062 and -0.6032 and 0.5546 and 2.207 and 4.8202 and 4.806 | β-arrestin2 recruitment response in presence of serotonin (replicate values) (5HT2C; Log[Drug] -9.52): 71.3301 and 78.8962 and 71.9628 and 82.1452 and 81.8826 and 58.8025 and 76.3992 and 91.8022 and 69.3558 | β-arrestin2 recruitment response (dose-response source data, replicate values) (5HT2C; Log[Drug] -9.52): -0.7505 and -1.198 and -1.073 and 2.378 and 0.7896 and 2.704 and -0.6423 and 0.9477 and 0.7345
